Test [1] concerns MCL1 protein in PC3 and WAC2 cells. The experiment in a line: Western blot of MCL1 protein in treated cells. The format is cell-based, human. As to conditions: PC3 or WAC2 cells, 4 h, 10 µM LeuP, 30 µM BTZ or 10 µM LeuP + 30 µM BTZ (Fig. 5), BTZ 10, 20 or 30 µM in PC-3 (Fig. S4), N = 3. As to the method:
(§1) Whole-cell lysates were prepared by lysing cells on ice with 1× RIPA buffer (Boston BioProducts): 50 mM Tris-HCl pH 7.4, 150 mM NaCl, 1% NP40, 0.5% sodium deoxycholate and water (rest) supplemented with protease inhibitors (1 mM AEBSF, 0.8 μM aprotinin, 0.05 mM bestatin, 0.015 mM E-64, 0.02 mM leupeptin, 0.01 mM pepstatin A). Protein lysates were resolved by sodium dodecyl sulfate–polyacrylamide gel electrophoresis and transferred to polyvinylidene fluoride membrane in a wet transfer system for 1 h at 100 V. Membranes were incubated with anti-MCL1 Abs (D2W9E and D35A5, Cell Signaling), anti-BAX Abs (D2E11, Cell Signaling), anti-P18 Abs, DCS-118 from Cell Signaling, anti-β-actin Abs, PA1–21167, from Pierce (Rockford, IL, USA), and anti-CDK6 Ab, (C-21): sc-177 from Santa Cruz at a dilution of 1:1000, at 4 °C overnight. HRP-conjugated secondary Abs were used for detection using ECL2 reagent (Pierce). Immunoblots were visualized on Bio-Rad ChemiDoc MP imaging system.
Fig. 5 MCL1 impact on P18 degradation. […] Quantification of band intensity shown below blot. […] The statistical significance was determined by unpaired Student t-test where […].
Figure S4. […] Quantification of band intensity shown below blot. […] The statistical significance was determined by unpaired Student t-test where *P<0.05; **P<0.01; ***P<0.001.
Background: A western blot detects proteins with antibodies after separation by electrophoresis.

Test [2] relates to P18 protein in PC3 and WAC2 cells. Description: Western blot of P18 protein in treated cells. The settings on record: for P18 protein level: Western blot, PC3 or WAC2 cells, 4 h, 10 µM LeuP, 30 µM BTZ or 10 µM LeuP + 30 µM BTZ (Fig. 5), BTZ 10, 20 or 30 µM in PC-3 (Fig. S4), N = 3. The format is cell-based, human. As to the method: as §1
Fig. 5 MCL1 impact on P18 degradation. Western blot of DMSO control (0.3%), 10 µM leupeptin (LeuP), 10 µM LeuP + 30µM bortezomib (BTZ), or 30 µM BTZ treated (a) PC3 cells or (b) WAC2 cells for 4 h. Quantification of band intensity shown below blot. All data are presented as mean ± S.D., N = 3. The statistical significance was determined by unpaired Student t-test where […].
Figure S4. Bortezomib inversely impacts MCL1 and P18. Western blot of bortezomib treated PC-3 cells (10, 20, or 30 uM) for 4 hours. Quantification of band intensity shown below blot. All data are presented as mean ± S.D., N=3. The statistical significance was determined by unpaired Student t-test where *P<0.05; **P<0.01; ***P<0.001.

For test [3], the target named is T1, P18 protein (human P18INK4C residues 1-168), recombinant (human, UniProt P42773 1-168).
T1 construct: Human P18 (P18INK4C, CDKN2C), residues 1-168, called full-length P18 protein in the results; The purification of this protein is not described; only that of His6-MCL1 is; also called CDKN2C; full-length P18 protein; source: E. coli BL21(DE3), recombinant
T1 sequence (looked up): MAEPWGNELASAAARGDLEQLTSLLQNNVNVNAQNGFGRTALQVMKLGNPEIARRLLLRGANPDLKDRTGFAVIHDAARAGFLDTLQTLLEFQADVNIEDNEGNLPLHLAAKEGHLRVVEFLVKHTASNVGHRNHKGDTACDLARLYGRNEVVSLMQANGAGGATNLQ
Description: pull-down; in vitro pulldown of recombinant P18, P16, truncated and chimeric proteins (IP) with recombinant MCL1 (IB). The settings on record: both partners purified.

With `CC(C)C[C@H](NC(=O)[C@H](Cc1ccccc1)NC(=O)c1cnccn1)B(O)O` [bortezomib], the MCL1 protein level entry in test [1] is reported as “increase in MCL1 protein”. The P18 protein level entry in test [2] is recorded as “decrease in P18 protein”. The “effect of bortezomib on MCL1-induced loss of P18 protein” value in test [2] (proteasome inhibitor bortezomib, Fig. 5 and Fig. S4) is on record as “does not rescue this effect”.
Turning to `CC(=O)N[C@@H](CC(C)C)C(=O)N[C@@H](CC(C)C)C(=O)N[C@H](C=O)CCCNC(=N)N` [leupeptin], in test [1], the MCL1 protein level entry is “marginal to no impact”. Also, in test [2], the P18 protein level result is “marginal to no impact”.

B1: His6-MCL1 (human MCL1 residues 163-326) (domain or fragment, UniProt Q07820 163-326, looked up)
chain: TPPPAEEEEDELYRQSLEIISRYLREQATGAKDTKPMGRSGATSRKALETLRRVGDGVQRNHETAFQGMLRKLDIKNEDDVKSLSRVMIHVFSDGVTNWGRIVTLISFGAFVAKHLKTINQESCIEPLAESITDVLVRTKRDWLVKQRGWDGFVEFFHVEDLEG
notes: Named His6-MCL1 in the FPA; called rMCL1 in the pull-downs; also called His-MCL1; recombinant MCL1; source: E. coli BL21(DE3), purified (nickel column, gel filtration); not shown: His6, N-terminal, kept
In the case of B1, in test [3], the binding result is “binds”.

Values taken from publication PMC7048787, “MCL1 binding to the reverse BH3 motif of P18INK4C couples cell survival to cell proliferation” (Cell Death & Disease, 2020).
